Experimental data: patent publication US8962558B2, “Methods for reducing GnRH-positive tumor cell proliferation using the GnRH antagonist IN3” (priority 1997, dated 2015)
Square brackets hold non-standard residues; d marks the D form. Peptide text beside a SMILES is read from it. * marks the point of attachment. dPhe(4-NHCONH2) = NC(=O)Nc1ccc(C[C@@H](N)C(=O)O)cc1; Dihydroorotyl(S) = O=C1C[C@@H](C(=O)*)NC(=O)N1; d(hArg(Et2)) = CCN=C(NCC)NCCCC[C@@H](N)C(=O)O; dPhe(4-NH2) = Nc1ccc(C[C@@H](N)C(=O)O)cc1; hArg(Et2) = CCN=C(NCC)NCCCC[C@H](N)C(=O)O; dPhe(4-Cl) = N[C@H](Cc1ccc(Cl)cc1)C(=O)O; Phe(4-NH2) = Nc1ccc(C[C@H](N)C(=O)O)cc1; d2Nal = N[C@H](Cc1ccc2ccccc2c1)C(=O)O; Lys(iPr) = CC(C)NCCCC[C@H](N)C(=O)O; NMeY = CN[C@@H](Cc1ccc(O)cc1)C(=O)O; d3Pal = N[C@H](Cc1cccnc1)C(=O)O

How the values were obtained:
[1] = test system: small cell lung carcinoma cell lines NCI-H1688, NCI-H1417, NCI-H1672, NCI-H1836, DMS-79, DM-553, DMS-114, SW-1271, NCI-H2227, NCI-HI1963, SHP-77 and H-69 AR; experiment: Proliferation assay on small cell lung carcinoma cell lines (Example 3); assay type: cell-based, human; conditions: small cell lung carcinoma cell lines treated with the substance
Protocol: In another embodiment, the small cell lung carcinoma cell lines NCI-H1688, NCI-H1417, NCI-H1672, NCI-H1836, DMS-79, DM-553, DMS-114, SW-1271, NCI-H2227, NCI-HI1963 and SHP-77 in addition to the multidrug-resistant small cell lung carcinoma cell line H-69 AR, are cultured as described above and then treated as described by Emons, G., et al., 1993, supra, and Irmer, G., 1995, supra, with various concentrations of the GnRH agonists (D-Lys6)-GnRH, Lutrelin, Histrelin, Nafarelin, Azagly-Nafarelin, Deslorelin, Cystorelin, Decapeptyl, Gonadorelin, GnRH, D-Lys(6)-GnRH II, Lamprey GnRH II, (D-Lys6)-Lamprey GnRH, (D-Lys6)-Lamprey GnRH II and Lamprey GnRH III.
In another embodiment, the small cell lung carcinoma cell lines NCI-H1688, NCI-H1417, NCI-H1672, NCI-H1836, DMS-79, DM-553, DMS-114, SW-1271, NCI-H2227, NCI-HI1963 and SHP-77 in addition to the multidrug-resistant small cell lung carcinoma cell line H-69 AR, are cultured as described above for the above-mentioned cell lines, and then treated as described by Emons, G., et al., 1993, supra, and Irmer, G., 1995, supra, with a concentration of the GnRH antagonist Cetrorelix (also known as Cetrotide®) or with a GnRH peptide antagonist Ac-D-Nal(2)-D-4-ClPhe-D-Pal-Ser-1-MePal-D-IsopropylLys-Leu-IsopropylLys-Pro-D-AlaNH2 wherein Mepal is 1-Methyl-3-[3′-pyridyl]-alanine or Ant 135-25 (also known as Ac-D-Nal(2)-D-4-Cl-Phe-D-Pal-Ser-1-MePal-D-IsopropylLys-Leu-IsopropylLys-Pro-D-AlaNH2), Teverelix (also known as Antarelix®), Cetrorelix (also known as Cetrotide®), Abarelix (also known as Plenaxis®), D-63153 (also known as Ozarelix®), acyline, azaline B, antide (also known as Iturelix®), Degarelix (FE200486), Ganirelix, Nal-Glu, Orntide (also known as Ornirelix®) or with antagonist peptidomimetic ((2S)-2-[5-[2-(2-azabicyclo[2,2,2]oct-2-yl)-1,1-dimethyl-2-oxoethyl]-2-(3,5-dimethylphenyl)-1H-indol-3-yl]-N-(2-pyridin-4-ylethyl-)propan-1-amine (also known as “IN3”).

[2] = test system: human glioblastoma cell lines U-87MG or U-373MG, Kaposi sarcoma cell lines KSY-1 or KS-SLK, malignant melanoma cell line MV3 or BLM, medulloblastoma cell line …; experiment: Proliferation assay on cell cultures (Example 3); assay type: cell-based; conditions: for anti-proliferative effects in tumor cells: cell lines of Example 3 treated with the substance; for anti-proliferative effect compared with Cetrorelix only: given additionally as a second GnRH antagonist
Protocol: A human cell line, such as the well known human glioblastoma cell lines U-87MG or U-373MG (Pinski et al., supra), or a human cell line such as the well known Kaposi sarcoma cell lines KSY-1 or KS-SLK (Parkash et al., 1996, New England Journal of Medicine, 335, 17, 1261-1269), or a human cell line such as the well known human malignant melanoma cell line MV3 or BLM (Goldbrunner, R. H., et al., 1996, Anticancer Research 16 (6B), 3679-87), or a human medulloblastoma cell line such as the well known cell line Daoy or D283 MED (Stockhammer et al., 1995, J. Neurosurgery, 83, 672-681), or human meningeoma cell cultures (Boyle-Wash, E., et al., 1995, Journal of Endocrinology, 145, 155-161), are cultured as previously described for the above-mentioned cell lines and then treated with a concentration of the GnRH agonist Triptorelin®, GnRH antagonist SB-75 (Cetrorelix®) or GnRH antagonist Ramorelix®. […]
In another embodiment, the above-mentioned cell lines are treated as described by Emons, G., et al., 1993, supra, and Irmer, G., 1995, supra, with a concentration of the GnRH peptide antagonist Ac-D-Nal(2)-D-4-ClPhe-D-Pal-Ser-1-MePal-D-IsopropylLys-Leu-IsopropylLys-Pro-D-AlaNH2 (also known as Ant 135-25; the Mepal portion is known as 1-Methyl-3-[3′-pyridyl]-alanine), Teverelix (also known as Antarelix®), Cetrorelix (also known as Cetrotide®), Abarelix (also known as Plenaxis®), D-63153 (also known as Ozarelix®), acyline, azaline B, antide (also known as Iturelix®), Degarelix (FE200486), Ganirelix, Nal-Glu, Orntide (also known as Ornirelix®), Elagolix, or with antagonist peptidomimetic ((2S)-2-[5-[2-(2-azabicyclo[2,2,2]oct-2-yl)-1,1-dimethyl-2-oxoethyl]-2-(3,5-dimethylphenyl)-1H-indol-3-yl]-N-(2-pyridin-4-ylethyl-)propan-1-amine (also known as “IN3”).
In another embodiment, the cell lines used above were each additionally treated with a second GnRH antagonist, namely one of the GnRH antagonists Cetrorelix®, Ant 135-25, IN3, degarelix, Antarelix®, Antide®, and Ramorelix® or alternatively with one of the GnRH antagonists that have been disclosed in U.S. Pat. Nos. 6,939,88, 6,200,957, 5,296,468, 4,851,385, 7,361,633, 7,288,517, WO/2009/106597 or PCT/EP2009/052326, U.S. Pat. Nos. 5,480,969, 5,198,533, or UK Patent GB 2 246782 B, wherein these additional treatment procedures were carried out in a manner similar to those reported in Emons et al., supra, using SB 75 (Cetrorelix®). […]

CCNC(=O)[C@@H]1CCCN1C(=O)[C@H](CCCN=C(N)N)NC(=O)[C@H](CC(C)C)NC(=O)[C@@H](Cc1c[nH]c2ccccc12)NC(=O)[C@H](Cc1ccc(O)cc1)NC(=O)[C@H](CO)NC(=O)[C@H](Cc1c[nH]c2ccccc12)NC(=O)[C@H](Cc1cnc[nH]1)NC(=O)[C@@H]1CCC(=O)N1 [Deslorelin]
anti-proliferative effects in tumor cells [1]: Significant anti-proliferative effects | anti-proliferative effects in tumor cells [2]: Significant anti-proliferative effects

CC(=O)N[C@H](Cc1ccc2ccccc2c1)C(=O)N[C@H](Cc1ccc(Cl)cc1)C(=O)N[C@H](Cc1cccnc1)C(=O)N[C@@H](CO)C(=O)N[C@@H](Cc1ccc(NC(=O)[C@@H]2CC(=O)NC(=O)N2)cc1)C(=O)N[C@H](Cc1ccc(NC(N)=O)cc1)C(=O)N[C@@H](CC(C)C)C(=O)N[C@@H](CCCCNC(C)C)C(=O)N1CCC[C@H]1C(=O)N[C@H](C)C(N)=O [Degarelix] (Ac-[d2Nal][dPhe(4-Cl)][d3Pal]S[Phe(4-NH2)](Dihydroorotyl(S))[dPhe(4-NHCONH2)]L[Lys(iPr)]P[dA]-NH2)
anti-proliferative effects in tumor cells [1]: Significant anti-proliferative effects | anti-proliferative effects in tumor cells [2]: Significant anti-proliferative effects | anti-proliferative effect compared with Cetrorelix only [2]: significantly stronger anti-proliferative effect

CC(C)C[C@H](NC(=O)[C@@H](Cc1c[nH]c2ccccc12)NC(=O)[C@H](Cc1ccc(O)cc1)NC(=O)[C@H](CO)NC(=O)[C@H](Cc1c[nH]c2ccccc12)NC(=O)[C@H](Cc1c[nH]cn1)NC(=O)[C@@H]1CCC(=O)N1)C(=O)N[C@@H](CCCNC(=N)N)C(=O)N1CCC[C@H]1C(=O)NCC(N)=O [Decapeptyl]
anti-proliferative effects in tumor cells [1]: Significant anti-proliferative effects

CCNC(=O)[C@@H]1CCCN1C(=O)[C@H](CCCNC(=N)N)NC(=O)[C@H](CC(C)C)NC(=O)[C@@H](Cc1cn(Cc2ccccc2)cn1)NC(=O)[C@H](Cc1ccc(O)cc1)NC(=O)[C@H](CO)NC(=O)[C@H](Cc1c[nH]c2ccccc12)NC(=O)[C@H](Cc1cnc[nH]1)NC(=O)[C@@H]1CCC(=O)N1 [Histrelin]
anti-proliferative effects in tumor cells [1]: Significant anti-proliferative effects | anti-proliferative effects in tumor cells [2]: Significant anti-proliferative effects

Ac-D-Nal(2)-D-4-ClPhe-D-Pal-Ser-1-MePal-D-IsopropylLys-Leu-IsopropylLys-Pro-D-AlaNH2 [Ant 135-25]
anti-proliferative effects in tumor cells [1]: Significant anti-proliferative effects | anti-proliferative effects in tumor cells [2]: Significant anti-proliferative effects | anti-proliferative effect compared with Cetrorelix only [2]: significantly stronger anti-proliferative effect

CCN=C(NCC)NCCCC[C@H](NC(=O)[C@H](CC(C)C)NC(=O)[C@@H](CCCCNC(=NCC)NCC)NC(=O)[C@H](Cc1ccc(O)cc1)NC(=O)[C@H](CO)NC(=O)[C@@H](Cc1cccnc1)NC(=O)[C@@H](Cc1ccc(Cl)cc1)NC(=O)[C@@H](Cc1ccc2ccccc2c1)NC(C)=O)C(=O)N1CCC[C@H]1C(=O)N[C@H](C)C(N)=O [Ganirelix] (Ac-[d2Nal][dPhe(4-Cl)][d3Pal]SY[d(hArg(Et2))]L[hArg(Et2)]P[dA]-NH2)
anti-proliferative effects in tumor cells [1]: Significant anti-proliferative effects | anti-proliferative effects in tumor cells [2]: Significant anti-proliferative effects

CCNC(=O)[C@@H]1CCCN1C(=O)[C@H](CCCN=C(N)N)NC(=O)[C@H](CC(C)C)N(C)C(=O)[C@@H](Cc1c[nH]c2ccccc12)NC(=O)[C@H](Cc1ccc(O)cc1)NC(=O)[C@H](CO)NC(=O)[C@H](Cc1c[nH]c2ccccc12)NC(=O)[C@H](Cc1cnc[nH]1)NC(=O)[C@@H]1CCC(=O)N1 [Lutrelin]
anti-proliferative effects in tumor cells [1]: Significant anti-proliferative effects | anti-proliferative effects in tumor cells [2]: Significant anti-proliferative effects

COc1cccc(-c2c(C)n(Cc3c(F)cccc3C(F)(F)F)c(=O)n(C[C@H](NCCCC(=O)O)c3ccccc3)c2=O)c1F [Elagolix, 4-[[(1R)-2-[5-(2-Fluoro-3-methoxyphenyl)-3-[[2-fluoro-6(trifluoromethyl)phenyl]methyl]-3,6-dihydro-4-methyl-2,6-dioxo-1(2H)-pyrimidinyl]-1-phenylethyl]amino]butanoic acid]
anti-proliferative effects in tumor cells [2]: Significant anti-proliferative effects

Cc1cc(C)cc(-c2[nH]c3ccc(C(C)(C)C(=O)N4CC5CCC4CC5)cc3c2[C@H](C)CNCCc2ccncc2)c1 [IN3, (2S)-2-[5-[2-(2-azabicyclo[2,2,2]oct-2-yl)-1,1-dimethyl-2-oxoethyl]-2-(3,5-dimethylphenyl)-1H-indol-3-yl]-N-(2-pyridin-4-ylethyl-)propan-1-amine]
anti-proliferative effects in tumor cells [1]: Significant anti-proliferative effects | anti-proliferative effects in tumor cells [2]: Significant anti-proliferative effects | anti-proliferative effect compared with Cetrorelix only [2]: significantly stronger anti-proliferative effect

CC(=O)Nc1ccc(C[C@H](NC(=O)[C@H](CO)NC(=O)[C@@H](Cc2cccnc2)NC(=O)[C@@H](Cc2ccc(Cl)cc2)NC(=O)[C@@H](Cc2ccc3ccccc3c2)NC(C)=O)C(=O)N[C@H](Cc2ccc(NC(C)=O)cc2)C(=O)N[C@@H](CC(C)C)C(=O)N[C@@H](CCCCNC(C)C)C(=O)N2CCC[C@H]2C(=O)N[C@H](C)C(N)=O)cc1 [acyline] (Ac-[d2Nal][dPhe(4-Cl)][d3Pal]S[Phe(4-NH2)](Ac)[dPhe(4-NH2)](Ac)L[Lys(iPr)]P[dA]-NH2)
anti-proliferative effects in tumor cells [1]: Significant anti-proliferative effects | anti-proliferative effects in tumor cells [2]: Significant anti-proliferative effects

CC(=O)N[C@H](Cc1ccc2ccccc2c1)C(=O)N[C@H](Cc1ccc(Cl)cc1)C(=O)N[C@H](Cc1cccnc1)C(=O)N[C@@H](CO)C(=O)N(C)[C@@H](Cc1ccc(O)cc1)C(=O)N[C@H](CC(N)=O)C(=O)N[C@@H](CC(C)C)C(=O)N[C@@H](CCCCNC(C)C)C(=O)N1CCC[C@H]1C(=O)N[C@H](C)C(N)=O [Abarelix] (Ac-[d2Nal][dPhe(4-Cl)][d3Pal]S[NMeY][dN]L[Lys(iPr)]P[dA]-NH2)
anti-proliferative effects in tumor cells [1]: Significant anti-proliferative effects | anti-proliferative effects in tumor cells [2]: Significant anti-proliferative effects
